“Also recorded” adds a separate entry of the source.
Legend:
[1] = test system: cycloheximide (CYH) sensitivity; assay: Yeast cycloheximide sensitivity at 37° C.; format: cell-based, S. cerevisiae
Experimental: For assessment of cycloheximide (CYH) sensitivity at 37° C., yeast cells with the cyh2^R genotype (FIG. 29) were first transformed with an empty pDEST-AD-TRP1-CYH2 plasmid (FIG. 30) before running the different experiments. Selection of the plasmid was maintained by culturing cells in SC-W medium.

[2] = Mouse liver microsome stability test; format: in vitro ADME; conditions: 1 mg/mL hepatic microsomes
Experimental: Mouse liver microsome (MLM) half-life measurements were performed by Scripps Florida Pharmacology Core, according to their protocols [Lamberto et al 2017]. 1 mg/mL hepatic microsomes was used to test compounds.
To assess whether E6R may be suitable for testing the effect of HDAC inhibition via new mechanisms in mouse, the half-life […] and intrinsic clearance (Clint) of this compound was first measured using a standard microsomal metabolic assay where sunitinib was used as a control [Lamberto et al 2017]. In this setting, compound degradation is induced by concentrated microsomes isolated from mouse liver. In particular, these hepatic extracts contain the cytochrome P450 system that is primarily responsible for first pass metabolism in vivo.

[3] = test system: mouse frontal cortex transcriptome; assay: RNA-seq of mouse frontal cortex after chronic treatment; format: in vivo
Experimental: For the pilot RT-qPCR experiment, in addition to the vehicle condition (ethanol 100%/kolliphor/saline 0.9% in a proportion of 1:1:14.4; for the 50 mg/kg dose, 14 μL NaOH 1M were also added), three doses (mg/kg) of E6R were tested: 5, 15, and 50, with 4 (vehicle) or 3 (E6R) animals per group. A dose of 50 mg/kg was picked to conduct further experiments. For the RNA-Seq experiment, E6R was dissolved in a vehicle solution containing saline 55% v/v, DMSO 34% v/v, ethanol 5% v/v, kolliphor EL (Sigma-Aldrich, MO, USA) 5% v/v, NaOH 1M 1% v/v. The vehicle group received the same solution. Animals were injected daily by intraperitoneal (I.P.) injection with 5 μL/g of the solution (50 mg/kg of the drug or vehicle) at 11 am for 10 days. Animal wellness was verified by daily visual inspection and weighing. […] On the 11th day, animals were sacrificed by bleeding via heart puncture under carbon dioxide anesthesia. The brains were quickly removed and the bilateral frontal cortex (bregma 1.90 to 1.40 mm) was dissected followed by total RNA extraction. The spleens were also collected in the pilot RT-qPCR experiments.
Qiagen™ RNeasy mini kits (Valencia, CA) were used following the manufacturer's protocol. Extracted RNA was further purified using Qiagen™ RNeasy Mini columns to eliminate any trace of DNA, and dissolve in nuclease-free water. Purity of the RNA preparation was determined as the 260/280 nm ratio with expected values between 2 and 2.3. Samples were stored at −80° C. before being used for RT-qPCR (pilot experiment), or shipped to the GENEWIZ company on dry ice for library construction and RNA sequencing.
RNA integrity (RIN) and yield were assessed on an Agilent 2100 Bioanalyzer, and samples with RIN larger than 7 were selected. Prior to the RNA-Seq, ribosomal RNA was depleted from the samples using the RiboMinus™ Human/Mouse Transcriptome Isolation Kit (Thermo Fisher Scientific, Waltham, MA). All samples were sequenced on an Illumina Hi-Seq sequencer. ˜29 million 50 bp single-end reads per sample were obtained. Sequencing adapters were removed using Trimmomatic v.0.33 [Bolger et al 2014]. Quality control at each processing step was performed using the FastQC tool v0.11.2 (quality base calls, GC content distribution, duplicate levels, complexity level) [Andrews 2010]. The Mouse GRCm38/mm10 reference genome was obtained from UCSC Genome Browser Gateway (http://hgdownload.soe.ucsc.edu/goldenPath/mm10/bigZips/chromFa.tar.gz), and the corresponding gene annotation file was obtained from Ensemble (ftp://ftp.ensembl.org/pub/release-83/gtf/mus_musculus/Mus_musculus.GRCm38.83.gtf.gz) on Feb. 20, 2016. Only autosomes, mitochondrial, and sex chromosomes were used. Reads were aligned using the subread v.1.6.2 aligner [Liao et al 2013]. Gene counts were obtained for each sample based on the last […] version of Ensembl transcriptome (v.87) using the featureCounts v.1.2.6 software [Liao et al 2014]. RNA-Seq counts were preprocessed and analyzed for differential expression using the edgeR v.3.24.3 [Robinson et al 2010] R package. P-values for differentially expressed genes were corrected using a false discovery rate (FDR) multiple testing correction method [Benjamini & Hochberg 1995]. Functional enrichment analysis (GO, KEGG) was performed using enrichr [Chen et al 2013]. Enrichment analysis using custom signatures was performed using hypergeometric test in the clusterProfiler v.3.10.1 R package [Yu et al 2012]. […]

[4] = test system: human neuroblastoma SK-N-BE(2)-C xenograft; assay: Neuroblastoma xenograft efficacy study; format: in vivo; conditions: E6R 50 mg/kg, SAHA 20 mg/kg
Experimental: Xenografts studies were performed at the TRACE PDX platform of the Leuven Cancer Institute (LKI) at KU Leuven-UZ Leuven. Treatment experiments included 24 NMRI-Foxlnu nude mice (Taconic) implanted with human neuroblastoma cell line SK-N-BE(2)-C(2 million cells/implant/mouse). Cells, tested for a full panel of murine pathogens (Impact profile I, IDEXX) prior to engraftment, were resuspended in 50% matrigel solution in PBS for injection in the mouse right flank. When tumors reached a volume of approximately 200 mm^3, mice were randomly assigned to vehicle (34% DMSO, 55% saline 0.9%, 5% ethanol, 5% kolliphor, 1% NaOH 1 M), E6R (50 mg/kg), or SAHA (20 mg/kg) treatment groups. Treatments were administered daily intraperitoneally for 10 days or until reaching human endpoint (i.e. tumor volume >1,500 mm^3). Tumors were measured daily with digital calipers, and volume was estimated as V=L×W×H×(π/6) (L: length; W: width; H: height). […] All data were analyzed using GraphPad Prism 8. Comparisons between the vehicle and treated groups were tested for statistical significance using […].

With `CC(/C=C/C(=O)NO)=C\[C@@H](C)C(=O)c1ccc(N(C)C)cc1` [TSA, trichostatin A] the CYH sensitivity [1] was “induced”.

In the case of `C[C@@H](NC(=O)c1c(O)n2ccccc2nc1=O)c1ccccc1` [E6R, 4-hydroxy-2-oxo-N—((R)-1-phenylethyl)-3,4-dihydro-2H-pyrido[, 2-a]pyrimidine-3-carboxamide], the “half-life in mouse liver microsomes” value [2] is reported as 17 min, the “fewer transcriptomic changes compared to conditional Hdac2 deletion” value ([3]; 50 mg/kg ten days) is reported as “approximately 80 fold” and the “differentially expressed genes between HDAC2 cKO+vehicle and HDAC2 cKO+compound” value ([3]; HDAC2 cKO mice, 50 mg/kg) is reported as “Nine”. For the same molecule, the “genes with altered expression in mouse FC relative to WT+vehicle” value ([3]; WT mice, 50 mg/kg I.P. daily 10 days, FDR=0.3, p<0.05, Example 9) was 39 genes, the “genes significantly affected in the FC” value ([3]; WT mice, 50 mg/kg ten days, Example 11) was 48 genes and the “Homer1 expression in FC” value ([3]; WT mice, 50 mg/kg, vs WT+vehicle) was “downregulated”. For the same molecule, the “tolerability and body weight of xenografted mice” value ([4]; daily) was “did not affect mice weight; also recorded: well-tolerated” and the “growth of neuroblastoma tumors compared to vehicle” value ([4]; daily intraperitoneally 10 days) was “significantly reduced the growth”.
